# Test results taken from patent publication US9387230B2, “Methods to treat cancer using cyclosporine and cyclosporine derivatives” (priority 2011, dated 2016).
# Key:
# MDA-MB-468 cells (PT−/−) = assay: crystal violet cell growth, seven days after treatment; format: cell-based; conditions: MDA-MB-468, seven days; FIG. 10B
# Protocol: (§1) The next day, the growth medium was changed to medium containing CsA and NIM-811. Medium containing 0.1% DMSO was used as negative control. The medium was replenished once. Seven days after treatment, the cells were stained with crystal violet and measured for cell growth. Cell growth of the negative control group is set as 100%.
# as §1, with “MDA-MB-468 cells (PT−/−) were seeded into 48-well plates at a density of 5000 cells/well. The next” for “The next”, “set as 100% (FIG. 10B).” for “set as 100%.”
# [1] = system: MCF10A wild type (WT) and PTEN knockout (PT−/−) cells; assay: crystal violet cell growth, 96 hours after treatment; format: cell-based
# Protocol: MCF10A wild type (WT) and PTEN knockout (PT−/−) cells were seeded into 48-well plate with density of 4000 cells/well. The next day, the growth medium was changed to a medium containing Tacrolimus. Medium containing 0.1% DMSO was used as negative control. Ninety-six (96) hours after treatment, the cells were stained with crystal violet for cell growth. The cell growth of negative control group is set as 100%.
# The next day, the growth medium was changed to a medium containing CsA (FIG. 9A) or an analog as depicted in each panel in FIG. 9B-D. Medium containing 0.1% DMSO was used as negative control. Ninety-six (96) hours after treatment, the cells were stained with crystal violet for cell growth. The cell growth of negative control group is set as 100%.
# Medium containing 0.1% DMSO was used as negative control. Ninety-six (96) hours after treatment, the cells were stained with crystal violet and measured for cell growth. Cell growth of the negative control group is set as 100%.
# MCF10A wild type (WT) and PTEN knockout (PT−/−) cells were seeded into 48-well plate with density of 4000 cells/well. The next day, the growth medium was changed to medium containing a compound, CsA or its analogs of Formula III-VIII. Medium containing 0.1% DMSO, was used as a negative control. Ninety six (96) hours after treatment, the cells were stained with crystal violet for cell growth. The cell growth of negative control group was set as 100%.
# MCF10A wild type (WT) and PTEN knockout (PT−/−) cells were seeded into 48-well plates at a density of 4000 cells/well. […] Medium containing 0.1% DMSO was used as negative control. Ninety-six (96) hours after treatment, the cells were stained with crystal violet and measured for cell growth. Cell growth of the negative control group was set as 100% (FIG. 10A).
SMILES,cell growth inhibition activity compared to CsA (MDA-MB-468 cells (PT−/−)),"differential inhibition of PT−/− MCF10A cells vs. isogenic wild type cells, compared to CsA ([1]; 96 hours, FIG. 10A)","preferential killing of PTEN null cells ([1]; MCF10A WT vs PT−/−, FIG. 8)","inhibition of cancer cells ([1]; physiologic dosing, FIG. 8)"
C/C=C/C[C@@H](C)[C@@H](O)[C@H]1C(=O)N[C@@H](CC)C(=O)N(C)CC(=O)N(C)[C@@H]([C@@H](C)CC)C(=O)N[C@@H](C(C)C)C(=O)N(C)[C@@H](CC(C)C)C(=O)N[C@@H](C)C(=O)N[C@H](C)C(=O)N(C)[C@@H](CC(C)C)C(=O)N(C)[C@@H](CC(C)C)C(=O)N(C)[C@@H](C(C)C)C(=O)N1C [NIM-811],better cell growth inhibition activity compared to CsA,increased activity compared to CsA,,
C=CC[C@@H]1/C=C(\C)C[C@H](C)C[C@H](OC)[C@H]2O[C@@](O)(C(=O)C(=O)N3CCCC[C@H]3C(=O)O[C@H](/C(C)=C/[C@@H]3CC[C@@H](O)[C@H](OC)C3)[C@H](C)[C@@H](O)CC1=O)[C@H](C)C[C@@H]2OC [tacrolimus],,,does not preferentially kill PTEN null cells,does not inhibit cancer cells at physiologic dosing
